In PubChem BioAssay AID1918941 (Molecular Pharmacology Branch, DTP, NCI, 2023):

System: SW 1271 complex spheroids, viability
Assay: Anticancer human tumor SW 1271 cell line growth inhibition [LSD1];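 further: spheroids exposed to agents for 7 days before luminescence read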;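 on viability, T/C: 100% = DMSO vehicle control viability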
Conditions: for IC50: curve of first compound; for viability, T/C: stronger effect = lower value
Summary of the method: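 Drug combinations with the LSD1 inhibitor iadademstat tested on tumor cells co-cultured as spheroids with endothelial cells and mesenchymal stem cells. Concentrations descended in half-log increments from clinical Cmax or 10 microM.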

[1] = second compound 0.1 µM, first compound 0.000316 µM
[2] = second compound 0.1 µM, first compound 0.001 µM
[3] = second compound 0.1 µM, first compound 0.00316 µM
[4] = second compound 0.1 µM, first compound 0.01 µM
[5] = second compound 0.1 µM, first compound 0.0316 µM
[6] = second compound 0.1 µM, first compound 0.1 µM
[7] = second compound 0.316 µM, first compound 0.000316 µM
[8] = second compound 0.316 µM, first compound 0.001 µM
[9] = second compound 0.316 µM, first compound 0.00316 µM
[10] = second compound 0.316 µM, first compound 0.01 µM
[11] = second compound 0.316 µM, first compound 0.0316 µM
[12] = second compound 0.316 µM, first compound 0.1 µM
[13] = second compound 1 µM, first compound 0.000316 µM
[14] = second compound 1 µM, first compound 0.001 µM
[15] = second compound 1 µM, first compound 0.00316 µM
[16] = second compound 1 µM, first compound 0.01 µM
[17] = second compound 1 µM, first compound 0.0316 µM
[18] = second compound 1 µM, first compound 0.1 µM
[19] = second compound 3.16 µM, first compound 0.000316 µM
[20] = second compound 3.16 µM, first compound 0.001 µM
[21] = second compound 3.16 µM, first compound 0.00316 µM
[22] = second compound 3.16 µM, first compound 0.01 µM
[23] = second compound 3.16 µM, first compound 0.0316 µM
[24] = second compound 3.16 µM, first compound 0.1 µM
[25] = second compound 10 µM, first compound 0.000316 µM
[26] = second compound 10 µM, first compound 0.001 µM
[27] = second compound 10 µM, first compound 0.00316 µM
[28] = second compound 10 µM, first compound 0.01 µM
[29] = second compound 10 µM, first compound 0.0316 µM
[30] = second compound 10 µM, first compound 0.1 µM
[31] = second compound 0.1 µM, first compound 0.00949 µM
[32] = second compound 0.1 µM, first compound 0.03 µM
[33] = second compound 0.1 µM, first compound 0.0949 µM
[34] = second compound 0.1 µM, first compound 0.3 µM
[35] = second compound 0.1 µM, first compound 0.949 µM
[36] = second compound 0.1 µM, first compound 3 µM
[37] = second compound 0.316 µM, first compound 0.00949 µM
[38] = second compound 0.316 µM, first compound 0.03 µM
[39] = second compound 0.316 µM, first compound 0.0949 µM
[40] = second compound 0.316 µM, first compound 0.3 µM
[41] = second compound 0.316 µM, first compound 0.949 µM
[42] = second compound 0.316 µM, first compound 3 µM
[43] = second compound 1 µM, first compound 0.00949 µM
[44] = second compound 1 µM, first compound 0.03 µM
[45] = second compound 1 µM, first compound 0.0949 µM
[46] = second compound 1 µM, first compound 0.3 µM
[47] = second compound 1 µM, first compound 0.949 µM
[48] = second compound 1 µM, first compound 3 µM
[49] = second compound 3.16 µM, first compound 0.00949 µM
[50] = second compound 3.16 µM, first compound 0.03 µM
[51] = second compound 3.16 µM, first compound 0.0949 µM
[52] = second compound 3.16 µM, first compound 0.3 µM
[53] = second compound 3.16 µM, first compound 0.949 µM
[54] = second compound 3.16 µM, first compound 3 µM
[55] = second compound 10 µM, first compound 0.00949 µM
[56] = second compound 10 µM, first compound 0.03 µM
[57] = second compound 10 µM, first compound 0.0949 µM
[58] = second compound 10 µM, first compound 0.3 µM
[59] = second compound 10 µM, first compound 0.949 µM
[60] = second compound 10 µM, first compound 3 µM

CC(C)CC(NC(=O)C(Cc1ccccc1)NC(=O)c1cnccn1)B(O)O (stereo not given) + NC1CCC(NC2CC2c2ccccc2)CC1
IC50 (second compound 0.1 µM): < 0.316 nM | IC50 (second compound 0.316 µM): < 0.316 nM | IC50 (second compound 1 µM): < 0.316 nM | IC50 (second compound 3.16 µM): < 0.316 nM | IC50 (second compound 10 µM): < 0.316 nM | viability, T/C [1]: 2.37% | viability, T/C [2]: 0.35% | viability, T/C [3]: 0.16% | viability, T/C [4]: 0.13% | viability, T/C [5]: 0.13% | viability, T/C [6]: 0.32% | viability, T/C [7]: 3.05% | viability, T/C [8]: 0.13% | viability, T/C [9]: 0.12% | viability, T/C [10]: 0.27% | viability, T/C [11]: 0.33% | viability, T/C [12]: 0.2% | viability, T/C [13]: 2.83% | viability, T/C [14]: 0.08% | viability, T/C [15]: 1.7% | viability, T/C [16]: 0.43% | viability, T/C [17]: 0.14% | viability, T/C [18]: 0.11% | viability, T/C [19]: 2.94% | viability, T/C [20]: 0.33% | viability, T/C [21]: 0.37% | viability, T/C [22]: 0.09% | viability, T/C [23]: 0.16% | viability, T/C [24]: 0.31% | viability, T/C [25]: 2.41% | viability, T/C [26]: 0.43% | viability, T/C [27]: 0.14% | viability, T/C [28]: 0.16% | viability, T/C [29]: 0.12% | viability, T/C [30]: 0.19%

CC(C)CC(NC(=O)CNC(=O)c1cc(Cl)ccc1Cl)B1OC(=O)CC(CC(=O)O)(C(=O)O)O1 (stereo not given) + NC1CCC(NC2CC2c2ccccc2)CC1
IC50 (second compound 0.1 µM): 4.95 nM | IC50 (second compound 0.316 µM): 4.94 nM | IC50 (second compound 1 µM): 5.09 nM | IC50 (second compound 3.16 µM): 5.19 nM | IC50 (second compound 10 µM): 5.23 nM | viability, T/C [1]: 93.8% | viability, T/C [2]: 88.8% | viability, T/C [3]: 78.4% | viability, T/C [4]: 5.55% | viability, T/C [5]: 0.31% | viability, T/C [6]: 0.44% | viability, T/C [7]: 92.7% | viability, T/C [8]: 90% | viability, T/C [9]: 78.1% | viability, T/C [10]: 5.75% | viability, T/C [11]: 0.88% | viability, T/C [12]: 0.13% | viability, T/C [13]: 78.5% | viability, T/C [14]: 80.4% | viability, T/C [15]: 83.8% | viability, T/C [16]: 6.04% | viability, T/C [17]: 0.34% | viability, T/C [18]: 0.23% | viability, T/C [19]: 93.7% | viability, T/C [20]: 93.9% | viability, T/C [21]: 81.4% | viability, T/C [22]: 8.6% | viability, T/C [23]: 0.51% | viability, T/C [24]: 0.36% | viability, T/C [25]: 85.3% | viability, T/C [26]: 79.2% | viability, T/C [27]: 86.2% | viability, T/C [28]: 6.72% | viability, T/C [29]: 0.65% | viability, T/C [30]: 0.38%

Nc1ccccc1NC(=O)c1ccc(CNC(=O)OCc2cccnc2)cc1 + NC1CCC(NC2CC2c2ccccc2)CC1
IC50 (second compound 0.1 µM): 158 nM | IC50 (second compound 0.316 µM): 150 nM | IC50 (second compound 1 µM): 153 nM | IC50 (second compound 3.16 µM): 152 nM | IC50 (second compound 10 µM): 147 nM | viability, T/C [31]: 89.1% | viability, T/C [32]: 78.6% | viability, T/C [33]: 64.7% | viability, T/C [34]: 33.4% | viability, T/C [35]: 10.5% | viability, T/C [36]: 5.83% | viability, T/C [37]: 93.6% | viability, T/C [38]: 69.4% | viability, T/C [39]: 68% | viability, T/C [40]: 31.2% | viability, T/C [41]: 8.46% | viability, T/C [42]: 5.39% | viability, T/C [43]: 101% | viability, T/C [44]: 73.5% | viability, T/C [45]: 67.8% | viability, T/C [46]: 35.9% | viability, T/C [47]: 7.27% | viability, T/C [48]: 8.95% | viability, T/C [49]: 95.5% | viability, T/C [50]: 85.1% | viability, T/C [51]: 62.3% | viability, T/C [52]: 32.9% | viability, T/C [53]: 10.5% | viability, T/C [54]: 4.3% | viability, T/C [55]: 95.8% | viability, T/C [56]: 92.6% | viability, T/C [57]: 61.6% | viability, T/C [58]: 29.2% | viability, T/C [59]: 11.2% | viability, T/C [60]: 7.03%

O=C(C=Cc1cccc(S(=O)(=O)Nc2ccccc2)c1)NO + NC1CCC(NC2CC2c2ccccc2)CC1
IC50 (second compound 0.1 µM): 167 nM | IC50 (second compound 0.316 µM): 122 nM | IC50 (second compound 1 µM): 88.5 nM | IC50 (second compound 3.16 µM): 606 nM | IC50 (second compound 10 µM): 84.7 nM | viability, T/C [31]: 72.1% | viability, T/C [32]: 72.1% | viability, T/C [33]: 57.9% | viability, T/C [34]: 22.7% | viability, T/C [35]: 6.87% | viability, T/C [36]: 96% | viability, T/C [37]: 88.8% | viability, T/C [38]: 69.8% | viability, T/C [39]: 61.9% | viability, T/C [40]: 18.5% | viability, T/C [41]: 7.13% | viability, T/C [42]: 97.9% | viability, T/C [43]: 78.8% | viability, T/C [44]: 68.8% | viability, T/C [45]: 52.4% | viability, T/C [46]: 19.1% | viability, T/C [47]: 8.74% | viability, T/C [48]: 102% | viability, T/C [49]: 88.6% | viability, T/C [50]: 72.9% | viability, T/C [51]: 56.1% | viability, T/C [52]: 26.4% | viability, T/C [53]: 6.99% | viability, T/C [54]: 108% | viability, T/C [55]: 85.3% | viability, T/C [56]: 75.7% | viability, T/C [57]: 48.8% | viability, T/C [58]: 22.1% | viability, T/C [59]: 7.93% | viability, T/C [60]: 98.2%

O=C(c1cc(Cc2n[nH]c(=O)c3ccccc23)ccc1F)N1CCN(C(=O)C2CC2)CC1 + NC1CCC(NC2CC2c2ccccc2)CC1
IC50 (second compound 0.1 µM): > 10000 nM | IC50 (second compound 0.316 µM): > 10000 nM | IC50 (second compound 1 µM): > 10000 nM | IC50 (second compound 3.16 µM): > 10000 nM | IC50 (second compound 10 µM): > 10000 nM | viability, T/C [5]: 82% | viability, T/C [6]: 104% | viability, T/C (second compound 0.1 µM, first compound 0.316 µM): 95.3% | viability, T/C (second compound 0.1 µM, first compound 1 µM): 86.2% | viability, T/C (second compound 0.1 µM, first compound 3.16 µM): 82.6% | viability, T/C (second compound 0.1 µM, first compound 10 µM): 71.2% | viability, T/C [11]: 85.7% | viability, T/C [12]: 91.9% | viability, T/C (second compound 0.316 µM, first compound 0.316 µM): 97.3% | viability, T/C (second compound 0.316 µM, first compound 1 µM): 87.7% | viability, T/C (second compound 0.316 µM, first compound 3.16 µM): 81.9% | viability, T/C (second compound 0.316 µM, first compound 10 µM): 63.8% | viability, T/C [17]: 82.7% | viability, T/C [18]: 105% | viability, T/C (second compound 1 µM, first compound 0.316 µM): 91.5% | viability, T/C (second compound 1 µM, first compound 1 µM): 96.6% | viability, T/C (second compound 1 µM, first compound 3.16 µM): 79.8% | viability, T/C (second compound 1 µM, first compound 10 µM): 71.9% | viability, T/C [23]: 81.6% | viability, T/C [24]: 94.7% | viability, T/C (second compound 3.16 µM, first compound 0.316 µM): 101% | viability, T/C (second compound 3.16 µM, first compound 1 µM): 83.4% | viability, T/C (second compound 3.16 µM, first compound 3.16 µM): 84% | viability, T/C (second compound 3.16 µM, first compound 10 µM): 76.6% | viability, T/C [29]: 93.8% | viability, T/C [30]: 95.9% | viability, T/C (second compound 10 µM, first compound 0.316 µM): 94.5% | viability, T/C (second compound 10 µM, first compound 1 µM): 84.2% | viability, T/C (second compound 10 µM, first compound 3.16 µM): 78.1% | viability, T/C (second compound 10 µM, first compound 10 µM): 66.9%
